Source: US20130072553A1, “DRUGS, DERIVATIVES AND ANALOGS CONTAINING ADAMANTANE STRUCTURES OF NEW INDICATION APPLICATIONS OF ANTI-TUMOR” (priority 2009, published 2013)
Read-outs that look alike come from different tables or passages of the source.

Assays:
[1] = system: human colorectal cancer cell line HT29; assay: In vitro anti-cancer cell experiment (MTT), colorectal cancer HT29; format: cell-based
Protocol: (§1) Cell lines: Human pancreatic cancer cell line Panc-1, human colorectal cancer cell line HT29, human lung cancer cell line NCI-H460 and human breast cancer cell line MCF7; the medium: s DMEM (Gibco BRL), containing 10% fetal calf serum (Gibco BRL) and 2 mM L-glutamine (Gibco BRL).
(§2) The samples were dissolved in dimethyl sulfoxide (DMSO, Sigma, United States) and medium was added to the final concentration of 0.5%. cyclophosphamide was as positive control (CTX, purity>96%).
(§3) Method: cells were digested with trypsin and dispersed into single cells in the medium containing penicillin (25 U/ml) and streptomycin (25 μg/ml). The cells were seeded in 96-well culture plates (Corning Incorporated), at 37° C., with 5% CO2 present for 24 hours. The culture medium was removed, 1-100 μm test compounds were added, cultured for 48 hours. Culture medium was removed and […] (MTT, USA Sigma products) was added. The result was assayed by SK601-based microplate reader (Japan Seikagaku company's products), 570 nm/630 nm optical density (OD). Cell viability determined by the formula: (Experimental group OD/control OD)×100%; CDDP and the positive control subjects treated in the same material simultaneously.

[2] = system: Human pancreatic cancer cell line Panc-1; assay: In vitro anti-cancer cell experiment (MTT), pancreatic cancer Panc-1; format: cell-based
Protocol: as §1, §2, §3

[3] = system: human lung cancer cell line NCI-H460; assay: In vitro anti-cancer cell experiment (MTT), lung cancer NCI-H460; format: cell-based
Protocol: as §1, §2, §3

[4] = system: human breast cancer cell line MCF7; assay: In vitro anti-cancer cell experiment (MTT), breast cancer MCF7; format: cell-based
Protocol: as §1, §2, §3

[5] = Body weight of S180 tumor-bearing mice
Protocol: (§4) Xenografts cultured S180 tumor cells were implanted subcutaneously into the flank region of mice and tumors were allowed to grow to the desired average size of 100 mg. The mice were randomized into control and treatment groups with 10 mice per group. The control group was injected with the vehicle used to dissolve the drug. […] Injections were I.V. via the tailvein.
(§5) The test group inoculated tumor cells […] in mice armpit, administration and observation of seven days.

mice sarcoma S180 = assay: Inhibition of the sarcoma growth S180 in mice; format: in vivo; conditions: for anti-tumor efficacy in vivo: iv; for inhibition compared with positive control cyclophosphamide / inhibition rate compared with positive control 5-FU: by tumor weight, seven days
Protocol: Tumor strains: mice sarcoma S180 for ascites passaged from Beijing Academy of Military Medical Institute of Pharmacology.
as §4, §5

[6] = MCF7, 48 h, read-out: IC50 with 95% confidence limits, inhibitory effect on breast cancer MCF7 cells
[7] = HT-29, HT29 cells, 48 hours, MTT, value (95% confidence limits), read-out: IC50 and 95% confidence limit, anti-proliferative effect on HT29
[8] = HT-29 cells, 48 hours, MTT, read-out: IC50 Colorectal cancer HT-29
[9] = Panc-1 cells, 48 hours, MTT, read-out: IC50 Pancreatic cancer Panc-1
[10] = Panc-1 cells, 48 hours, MTT, value (95% confidence limits), read-out: IC50 and 95% confidence limits, anti-proliferative effect on Panc-1
[11] = NCI-H460 cells, 48 hours, MTT, read-out: IC50 Lung cancer NCI-H460
[12] = NCI-H460 cells, 48 hours, MTT, value (95% confidence limits), unit given only for CTX, read-out: IC50 and 95% confidence limits, inhibitory effect on lung cancer NCI-H460 cells
[13] = MCF7 cells, 48 hours, MTT, read-out: IC50 Breast cancer MCF7
[14] = MCF7 cells, 48 hours, MTT, value (95% confidence limits), unit given only for CTX, read-out: IC50 with 95% confidence limits, inhibitory effect on breast cancer MCF7 cells

SMILES	IC50 [1, 7]	IC50 [1, 8]	IC50 [2, 9]	IC50 [2, 10]	IC50 [3, 11]	IC50 [3, 12]	IC50 [4, 13]	anti-tumor efficacy in vivo (mice sarcoma S180)	body Weight/g After ad. ([5]; mouse, in vivo, iv)	body Weight/g Before ad. ([5]; mouse, in vivo, iv)	IC50 [4, 14]	inhibition compared with positive control cyclophosphamide (mice sarcoma S180)	inhibition rate compared with positive control 5-FU (mice sarcoma S180)	other results
O=P1(N(CCCl)CCCl)NCCCO1 (centres unmarked) [CTX, cyclophosphamide]														IC50 ([1]; HT-29, 48 h, read-out: IC50 Colorectal cancer HT-29): 2.26 µM; IC50 ([1]; HT-29, 48 h, read-out: IC50 and 95% confidence limit, anti-proliferative effect on HT29): 2.26 µg/mL; IC50 ([2]; PANC-1, 48 h, read-out: IC50 Pancreatic cancer Panc-1): 2.23 µM; IC50 ([2]; PANC-1, 48 h, read-out: IC50 and 95% confidence limits, anti-proliferative effect on Panc-1): 2.23 µg/mL; IC50 ([3]; NCI-H460, 48 h, read-out: IC50 Lung cancer NCI-H460): 4.3 µM; IC50 ([3]; NCI-H460, 48 h, read-out: IC50 and 95% confidence limits, inhibitory effect on lung cancer NCI-H460 cells): 4.3 µg/mL; IC50 ([4]; MCF7, 48 h, read-out: IC50 Breast cancer MCF7): 0.92 µM; IC50 [4, 6]: 0.92 µg/mL; body Weight/g After ad. ([5]; after administration, iv, seven days, X ± SD): 28.22 ± 2.46 g; body Weight/g Before ad. ([5]; before administration (baseline), iv groups, X ± SD): 22.45 ± 0.79 g
NC12CC3CC(CC(C3)C1)C2 [Compound 1, Amantadine]	18.8 µg/mL	18.8 µM	51.3 µM	51.3 µg/mL	5.18 µM	5.18 µg/mL	6.18 µM	statistically significant	27.93 ± 3.37 g	21.41 ± 2.52 g				IC50 [4, 6]: 6.18 µg/mL
CC(N)C12CC3CC(CC(C3)C1)C2 (centres unmarked) [Compound 2, Rimantadine]	3.92 µg/mL	3.92 µM	2.42 µM	2.42 µg/mL	22 µM	22 µg/mL	2.73 µM	statistically significant	26.02 ± 3.69 g	19.35 ± 0.95 g	2.73 µg/mL	significantly better than the positive control group of cyclophosphamide	better than the positive control group, 5-FU	
CC12CC3CC(C)(C1)CC(N)(C3)C2 [Compound 3, Memantine]	13.1 µg/mL	13.1 µM	53 µM	53 µg/mL	60.5 µM	60.5 µg/mL	34.3 µM	statistically significant	28.98 ± 1.74 g	21.31 ± 1.53 g	34.3 µg/mL	significantly better than the positive control group of cyclophosphamide	better than the positive control group, 5-FU	
CN(C)CCOCC(=O)NC12CC3CC(CC(C3)C1)C2 [Compound 4, Tromantadine]	10.2 µg/mL	10.2 µM	10 µM	10 µg/mL	8.52 µM	8.52 µg/mL	67.5 µM	statistically significant	28.64 ± 4.13 g	21.03 ± 0.29 g	67.5 µg/mL		better than the positive control group, 5-FU	
COc1ccc(-c2ccc3cc(C(=O)O)ccc3c2)cc1C12CC3CC(CC(C3)C1)C2 [Compound 5, Adapalene]	0.85 µg/mL	0.85 µM	2.17 µM	2.17 µg/mL	2.81 µM	2.81 µg/mL		statistically significant	20.80 ± 3.61 g	20.27 ± 1.80 g		significantly better than the positive control group of cyclophosphamide	better than the positive control group, 5-FU	
O=c1[nH]cc(F)c(=O)[nH]1 [Compound 5-FU, 5-fluorouracil]									29.16 ± 2.50 g	21.61 ± 1.56 g				
O=C1C2CC3CC1CC(O)(C3)C2 [Compound 6, Idramantone]			53.5 µM	53.5 µg/mL				statistically significant	26.30 ± 3.62 g	19.92 ± 1.47 g				
